Experimental data from patent US20060040854A1, “Prostate hyperplasia therapy” (Board of Regents, The University of Texas System, priority 2004, published 2006).

What was measured:
[1] = system: androgen-induced prostatic enlargement in rats; test: Androgen-induced prostatic enlargement in castrated rats, finasteride vs insulin-6; assay type: in vivo
Method: The efficacy of insulin-6 in reducing prostate growth is evaluated against finasteride in a comparative therapeutic protocol adapted from Talpur et al,0 Mol Cell Biochem. 2003 August;250(1-2):21-6. Pharmaceutical finasteride and alpha blockers are used to treat symptoms of benign prostatic hyperplasia (BPH) and are known to cause severe adverse reactions. The present study compares the in vivo effects of finasteride on androgen-induced prostatic enlargement in rats with insulin-6. Non-castrated rats, have a mean prostate weight of 124 mg+/−8.8 (S.E.M.) compared to the 24.5 mg+/−1.9 (S.E.M.) of a castrated rat followed under the same regimen (p<0.01). […] In the two treatment groups, castrated rats receiving testosterone are given finasteride or insulin-6.

[2] = system: dogs with spontaneous benign prostatic hypertrophy
Method: The effect of insulin-6 on prostate size in benign prostatic hyperplasia is evaluated in a comparative study of finasteride and insulin-6 on size of the prostate gland and semen quality in dogs with benign prostatic hypertrophy in a protocol adapted from Sirinarumitr et al., J Am Vet Med Assoc. 2001 Apr. 15;218(8):1275-80.
Of […] dogs with BPH, five dogs are treated with insulin-6 or finasteride for 16 weeks (0.1 to 0.5 mg/kg [0.05 to 0.23 mg/lb] of body weight, PO, q 24 h); the other 4 receive a placebo. Prostatic diameter, measured radiographically, prostatic volume, measured ultrasonographically, semen quality, and serum DHT and testosterone concentrations are evaluated before and during treatment. After receiving the placebo for 16 weeks, the control dogs are treated with insulin-6 or finasteride for 16 weeks, and evaluations repeated.

[3] = system: symptomatic benign prostatic hyperplasia (BPH); test: Prospective study of finasteride, insulin-6 and combination in symptomatic benign prostatic hyperplasia; assay type: in vivo; conditions: men with BPH
Method: A prospective study is used to evaluate the therapeutic effect of finasteride, insulin-6, and a combination of finasteride and insulin-6 drugs for symptomatic benign prostatic hyperplasia (BPH). In a protocol adapted from Kuo (Urol Int. 1998;60(2):85-91), 190 men suffering from severe prostatism are subjected to study.
Patients are assessed by IPSS symptom score, digital rectal examination, transrectal sonography of the prostate, uroflowmetry and residual urine. The patients are randomly selected for medical treatment with insulin-6 (n=71), finasteride 5 mg q.d. (n=54), and a combination (n=65). Clinical assessments are carried out before treatment and 3 and 6 months after starting treatment. Patients who can not complete the treatment and those with prostatic cancer are excluded from the final statistics. The quality of life after 6 months of treatment and side effects are also assessed.

| Structure (SMILES) | size of the prostate ([1]; castrated rats receiving testosterone plus treatment) | semen quality ([2]; dog, in vivo) | semen volume ([2]; dog, in vivo) | serum DHT concentration, mean percentage decrease ([2]; dogs with BPH, 16 weeks, 0.1 to 0.5 mg/kg PO q 24 h) | prostatic diameter, mean percentage decrease ([2]; dogs with BPH, 16 weeks, 0.1 to 0.5 mg/kg PO q 24 h, measured radiographically) | prostatic volume, mean percentage decrease ([2]; dogs with BPH, 16 weeks, 0.1 to 0.5 mg/kg PO q 24 h, measured ultrasonographically) | quality of life after treatment ([3]; after 6 months of treatment) | IPSS symptom score ([3]; at 3 and 6 months) | Maximal flow rate (Qmax) ([3]; at 6 months) | prostatic volume ([3]; at 6 months) | mean prostate weight ([1]; castrated rats given testosterone, S.E.M. 31.7, p<0.01) |
| --- | --- | --- | --- | --- | --- | --- | --- | --- | --- | --- | --- |
| CC(C)(C)NC(=O)[C@H]1CC[C@H]2[C@@H]3CC[C@H]4NC(=O)C=C[C@]4(C)[C@H]3CC[C@]12C [finasteride] | decrease the size of the prostate to roughly the same size as in the non-castrated rats | do not adversely effect | decrease semen volume | 58% | 20% | 43% | satisfactory | Improvement in IPSS is noted | significant increase in Qmax | found to decrease |  |
| C[C@]12CC[C@H]3[C@@H](CCC4=CC(=O)CC[C@@]43C)[C@@H]1CC[C@@H]2O [testosterone] |  |  |  |  |  |  |  |  |  |  | 250.0 mg |
